The source of these data is patent US8580815B2, “Derivatives of azaindoles as inhibitors of protein kinases ABL and SRC” (Oribase Pharma, priority 2009, dated 2013).

Broadly, the inhibition is the share of the control response that was lost under treatment. What is called IC50 is the midpoint of a concentration-inhibition curve.

Where two headings read alike, the source gives them in different places.

One test has as its target Abl kinase (h) (Homo sapiens (Human), UniProt P00519). Description: Cerep kinase profiling, HTRF assay, Abl kinase. In kind it is biochemical. Here is the method: (§1) The inhibitory activity of the compounds of the chemical series on different protein kinases was evaluated by Cerep (Cerep Kinase Profiling Service; www.cerep.com). The kinases used in the tests in vitro are human recombinant proteins expressed in human cells, insect cells or in bacteria. […] The activity of the kinase was then detected by an HTRF assay. The HTRF assay (CisBio International) is based on fluorescence transfer, using Europium (Eu3+) cryptate and XL665 respectively as donor and acceptor. When the biotinylated or tagged substrate is phosphorylated by the kinase, it reacts with a cryptate-labelled phosphospecific antibody. Addition of Streptavidin-XL665, SA-XL665, (or anti-tag antibody XL665) leads to juxtaposition of the cryptate and of the fluorophore XL665, which is reflected in fluorescence resonance energy transfer (FRET). The intensity of FRET depends on the quantity of cryptate-labelled antibody bound to the substrate, which is proportional to the quantity of phosphorylated substrate (Mathis, G. Probing molecular interactions with homogeneous techniques based on rare earth cryptates and fluorescence energy transfer.

The next test deals with Src kinase (h) (Homo sapiens (Human), UniProt P12931). Description: Cerep kinase profiling, HTRF assay, Src kinase. In kind it is biochemical. Here is the method:
as §1

In a further test the target is c-kit kinase (h) (Homo sapiens (Human), UniProt P10721). In words: Cerep kinase profiling, HTRF assay, c-kit kinase. In kind it is biochemical. Particulars: compound incubated at 10 μM; read-out: Percentage inhibition of kinase c-kit. The method, then:
as §1, with “bacteria. [table]” for “bacteria.”, “transfer. Clin Chem 41, 1391-7 (1995)).” for “transfer.”
In general terms: Time-resolved FRET reads energy transfer from a long-lived donor to a nearby acceptor.

The target in a further test is AurA/Aur2 kinase (h) (Homo sapiens (Human), UniProt O14965). In words: Cerep kinase profiling, HTRF assay, Aurora-A kinase. It is filed as biochemical. As to conditions: compound incubated at 10 μM; read-out: Percentage inhibition of kinase Aurora-A. The method, then:
as §1, with “bacteria. [table]” for “bacteria.”, “transfer. Clin Chem 41, 1391-7 (1995)).” for “transfer.”

In another test the target is PDGFRα kinase (h) (Homo sapiens (Human), UniProt P16234). Description: Cerep kinase profiling, HTRF assay, PDGFRα kinase. As to conditions: compound incubated at 10 μM; read-out: Percentage inhibition of kinase PDGFR-α. It is filed as biochemical. The method, then:
as §1, with “bacteria. [table]” for “bacteria.”, “transfer. Clin Chem 41, 1391-7 (1995)).” for “transfer.”

Test [1] deals with K562 cells expressing kinase Bcr-AbI. Description: Inhibition of cellular proliferation (MTT), K562 cells. It is filed as cell-based, human. Here is the method:
Cellular tests were carried out at the Montpellier Cancer Research Centre. The inhibition of proliferation by our compounds was analysed on 2 cell lines (U937 and K562) by calculating the IC50, testing 6 concentrations in triplicate for each of the compounds and for each line.
Cells in exponential phase were seeded in 96-well plates at a concentration of 10^4 cells/100 μL/well. The final concentrations of compound in the well in contact with the cells were 0.1; 0.3; 0.9; 3.3; 10; 30; 90 μM. […]

Test [2] relates to U937 cells (BCR-Abl−).
Test [3] has as its system U937 cells (BCR-Abl−). In words: cells. Particulars: Homo sapiens, U-937, 72 h.
Another test has as its target Abl WT (Homo sapiens (Human), UniProt P00519). In words: Reaction Biology Corp. kinase assay, Abl WT. It is filed as biochemical. As to conditions: compounds tested by Reaction Biology Corp.; for IC50: ATP at 10 μM, read-out: IC50 on kinase Abl WT (category); for inhibition at 10 µM: read-out: % inhibition of kinase activity, Abl WT (category). Here is the method:
(§2) 4 compounds were tested for their capacity to inhibit various mutated kinases AbI (American company, Reaction Biology Corp.).

A further test deals with Abl T315I (Homo sapiens (Human), UniProt P00519, T315I). In words: Reaction Biology Corp. kinase assay, mutated Abl T315I. In kind it is biochemical. As to conditions: Reaction Biology Corp.; for inhibition at 10 µM: read-out: % inhibition of kinase activity, Abl T315I (category). Here is the method:
as §2

A further test concerns the target Src kinase (Homo sapiens (Human), UniProt P12931). In words: Reaction Biology Corp. kinase assay, Src. As to conditions: compounds tested by Reaction Biology Corp.; for IC50: IC50 on kinase Src (category), ATP at 10 μM; for inhibition at 10 µM: read-out: % inhibition of kinase activity, Src (category), 10 μM.
The test system of test [4] is K562 cells expressing kinase Bcr-AbI. Particulars: known activity; BCR-Abl+ cells, patient with CML; cited from earlier work.
The mark [5] stands for this setting: 10 μM, compounds tested by Cerep, read-out: % inhibition of kinase activity, Abl WT (category).
[6] abbreviates: Table 6, compound incubated at 10 μM, read-out: Percentage inhibition of kinase Abl.
Setting [7] is: Table 8, compound incubated at 10 μM, read-out: Percentage inhibition of kinase Abl.
Setting [8] is: 10 μM, compounds tested by Cerep, read-out: % inhibition of kinase activity, Src (category).
Setting [9] is: compound incubated at 10 μM, read-out: Percentage inhibition of kinase c-Src.
Where [10] appears, read: Homo sapiens, K562, 72 h, read-out: IC50 at 72 h on K562 (category), 72 h incubation.
The mark [11] stands for this setting: Homo sapiens, K562, incubation time not stated (24 h and/or 72 h), read-out: IC50 for the K562 Bcr-AbI kinase (category).
The mark [12] stands for this setting: Homo sapiens, K562, 24 h, 24 h incubation, read-out: IC50 at 24 h on K562 (category).

Sequence of Src kinase (P12931 whole entry, looked up): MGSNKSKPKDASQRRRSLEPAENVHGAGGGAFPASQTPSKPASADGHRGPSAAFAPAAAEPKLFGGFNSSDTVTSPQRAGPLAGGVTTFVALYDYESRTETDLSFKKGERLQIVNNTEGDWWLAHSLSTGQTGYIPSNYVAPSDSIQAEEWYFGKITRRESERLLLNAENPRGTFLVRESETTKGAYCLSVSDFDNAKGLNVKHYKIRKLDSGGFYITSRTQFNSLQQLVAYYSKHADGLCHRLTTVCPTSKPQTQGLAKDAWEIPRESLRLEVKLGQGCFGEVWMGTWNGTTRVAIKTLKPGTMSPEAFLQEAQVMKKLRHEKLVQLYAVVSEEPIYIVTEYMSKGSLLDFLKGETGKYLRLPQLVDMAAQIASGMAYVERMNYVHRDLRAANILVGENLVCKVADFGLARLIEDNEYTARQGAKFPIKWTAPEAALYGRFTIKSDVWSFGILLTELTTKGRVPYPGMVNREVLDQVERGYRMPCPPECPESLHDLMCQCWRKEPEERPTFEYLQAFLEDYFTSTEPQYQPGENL
Sequence of Src kinase (h) (P12931 whole entry, looked up): as above
Sequence of c-kit kinase (h) (P10721 26-976): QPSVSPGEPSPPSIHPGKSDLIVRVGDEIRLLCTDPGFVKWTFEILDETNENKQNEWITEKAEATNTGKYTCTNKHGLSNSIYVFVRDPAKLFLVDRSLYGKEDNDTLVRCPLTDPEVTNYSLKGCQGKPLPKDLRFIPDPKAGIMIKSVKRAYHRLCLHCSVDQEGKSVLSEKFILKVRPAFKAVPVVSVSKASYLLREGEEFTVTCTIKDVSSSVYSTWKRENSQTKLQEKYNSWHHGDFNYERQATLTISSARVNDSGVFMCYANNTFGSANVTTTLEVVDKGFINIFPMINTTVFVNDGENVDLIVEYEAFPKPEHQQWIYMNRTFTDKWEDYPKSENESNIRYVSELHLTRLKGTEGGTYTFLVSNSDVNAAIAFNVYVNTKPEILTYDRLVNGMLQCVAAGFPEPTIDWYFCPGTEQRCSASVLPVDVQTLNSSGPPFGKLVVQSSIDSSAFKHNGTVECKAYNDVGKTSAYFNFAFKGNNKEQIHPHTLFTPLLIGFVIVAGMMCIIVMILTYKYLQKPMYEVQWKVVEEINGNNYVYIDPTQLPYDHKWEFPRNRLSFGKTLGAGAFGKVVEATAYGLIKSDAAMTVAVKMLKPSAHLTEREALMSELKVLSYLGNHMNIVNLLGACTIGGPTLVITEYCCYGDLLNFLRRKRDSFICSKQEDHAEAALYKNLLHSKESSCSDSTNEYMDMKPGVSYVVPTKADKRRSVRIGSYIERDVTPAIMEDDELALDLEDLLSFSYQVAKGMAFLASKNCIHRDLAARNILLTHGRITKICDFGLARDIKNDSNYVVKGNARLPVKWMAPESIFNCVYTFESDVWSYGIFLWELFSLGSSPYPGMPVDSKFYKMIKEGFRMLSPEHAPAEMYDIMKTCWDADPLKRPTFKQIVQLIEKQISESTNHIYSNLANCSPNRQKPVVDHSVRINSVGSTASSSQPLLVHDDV
Sequence of AurA/Aur2 kinase (h) (O14965 whole entry): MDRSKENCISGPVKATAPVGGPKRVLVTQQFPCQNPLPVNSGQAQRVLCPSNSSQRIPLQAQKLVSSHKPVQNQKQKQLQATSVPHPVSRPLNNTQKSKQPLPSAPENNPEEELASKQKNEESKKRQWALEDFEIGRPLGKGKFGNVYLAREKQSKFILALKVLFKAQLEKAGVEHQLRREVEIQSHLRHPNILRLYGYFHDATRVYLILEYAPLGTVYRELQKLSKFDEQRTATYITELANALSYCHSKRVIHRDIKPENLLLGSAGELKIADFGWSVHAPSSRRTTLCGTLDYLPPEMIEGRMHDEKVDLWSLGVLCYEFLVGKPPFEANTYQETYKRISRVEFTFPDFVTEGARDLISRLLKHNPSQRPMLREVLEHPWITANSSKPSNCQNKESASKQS
Sequence of PDGFRα kinase (h) (P16234 24-1089): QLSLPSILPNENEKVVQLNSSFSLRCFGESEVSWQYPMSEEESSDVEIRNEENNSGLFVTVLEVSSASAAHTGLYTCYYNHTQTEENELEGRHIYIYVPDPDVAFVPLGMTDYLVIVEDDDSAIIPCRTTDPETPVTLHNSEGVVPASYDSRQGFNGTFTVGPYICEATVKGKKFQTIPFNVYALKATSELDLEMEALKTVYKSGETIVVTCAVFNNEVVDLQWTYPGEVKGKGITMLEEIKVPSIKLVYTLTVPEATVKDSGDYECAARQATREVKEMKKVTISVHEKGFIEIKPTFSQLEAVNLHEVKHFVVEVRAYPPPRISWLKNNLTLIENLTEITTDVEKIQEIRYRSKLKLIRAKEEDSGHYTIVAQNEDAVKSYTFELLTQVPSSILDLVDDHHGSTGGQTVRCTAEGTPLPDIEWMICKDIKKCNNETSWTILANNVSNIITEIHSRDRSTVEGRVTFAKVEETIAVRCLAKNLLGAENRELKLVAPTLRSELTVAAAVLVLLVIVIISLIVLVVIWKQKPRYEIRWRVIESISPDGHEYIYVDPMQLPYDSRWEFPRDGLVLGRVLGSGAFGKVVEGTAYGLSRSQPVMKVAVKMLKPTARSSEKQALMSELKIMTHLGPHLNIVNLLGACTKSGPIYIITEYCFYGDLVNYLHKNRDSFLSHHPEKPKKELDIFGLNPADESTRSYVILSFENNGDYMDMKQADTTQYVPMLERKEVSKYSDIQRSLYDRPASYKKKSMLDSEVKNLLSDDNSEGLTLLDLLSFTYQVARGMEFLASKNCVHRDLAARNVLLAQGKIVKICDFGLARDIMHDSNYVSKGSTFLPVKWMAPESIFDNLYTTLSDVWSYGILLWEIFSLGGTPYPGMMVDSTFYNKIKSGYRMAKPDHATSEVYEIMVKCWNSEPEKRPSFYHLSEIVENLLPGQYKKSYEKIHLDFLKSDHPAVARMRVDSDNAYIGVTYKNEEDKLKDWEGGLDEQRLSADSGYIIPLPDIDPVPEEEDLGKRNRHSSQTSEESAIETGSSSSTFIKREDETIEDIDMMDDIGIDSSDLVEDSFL

As for `O=C(Nc1cnc2[nH]c(CNc3ccc(O)cc3)cc2c1)c1ccccc1Br` [ND0038], the inhibition at 10 µM on Abl kinase (h) (setting [5]) is above 50%; on Abl kinase (h) (setting [6]), 94%; at Abl kinase (h) (setting [7]), 94%; at Src kinase (h) (setting [8]) it was above 50%; at Src kinase (h) (setting [9]), 71%. The IC50 was 2600 nM on Abl kinase (h) (Table 9, Cerep, 5 concentrations 10^−10 M to 10^−4 M, read-out: IC50 in M Abl) and 100 to 10000 nM on Abl kinase (h) (compounds tested by Cerep, read-out: IC50 on kinase Abl WT (category)).

For `COC(=O)c1cc2cc(NC(=O)c3c(F)cccc3OC)cnc2[nH]1` [ND0047, Methyl 5-(2-fluoro-6-methoxybenzamido)-1H-pyrrolo[2,3-b]pyridine-2-carboxylate], the inhibition at 10 µM on Abl kinase (h) (setting [5]) is above 50%; at Abl kinase (h) (setting [6]), 94%; at Abl kinase (h) (setting [7]) it was 94%; on Src kinase (h) (setting [8]), above 50%; on Src kinase (h) (setting [9]) it was 74%.

As to `COCc1cc2cc(NC(=O)c3ccccc3Br)cnc2[nH]1` [ND0021, 2-bromo-N-(2-(methoxymethyl)-1H-pyrrolo[2,3-b]pyridin-5-yl)benzamide], the inhibition at 10 µM is above 50% at Abl kinase (h) (setting [5]); 94% on Abl kinase (h) (setting [6]); 94% at Abl kinase (h) (setting [7]); above 50% on Src kinase (h) (setting [8]); 59% at Src kinase (h) (setting [9]).

As to `CN(C)CCCNC(=O)c1cc2cc(NC(=O)c3ccccc3Br)cnc2[nH]1` [ND0009, 5-(2-bromobenzamido)-N-(3-(dimethylamino)propyl)-1H-pyrrolo[2,3-b]pyridine-2-carboxamide], the inhibition at 10 µM is above 50% on Abl kinase (h) (setting [5]); 100% at Abl kinase (h) (setting [6]); 100% at Abl kinase (h) (setting [7]); 44% at c-kit kinase (h); above 50% on Src kinase (h) (setting [8]); 90% on Src kinase (h) (setting [9]). Besides, the inhibition at 10 µM amounted to 5% at AurA/Aur2 kinase (h) and 11% on PDGFRα kinase (h). Further, the half-maximal inhibitory concentration (IC50) at Src kinase (h) (Table 9, Cerep, read-out: IC50 in M c-Src) is 2200 nM; at Src kinase (h) (compound tested by Cerep, read-out: IC50 on kinase Src (category)), 100 to 10000 nM; in [1] (Homo sapiens, K562, 72 h, Table 12, 72 h of treatment, MTT, read-out: IC50 (μM) K562), 6 µM; in test [1] (setting [10]), above 10 µM; in test [1] (setting [11]), above 10 µM; in the test with U937 cells (BCR-Abl−) [3] (read-out: IC50 (μM) U937, Table 12, 72 h of treatment, MTT), above 100 µM. Further, the IC50 with U937 cells (BCR-Abl−) [3] (read-out: IC50 at 72 h on U937 (category), 72 h incubation) is above 10 µM. In addition, the “activity on the Bcr-AbI+ cells (K562), in words” value in test [1] is “active”. Further, the “activity on the Bcr-AbI− cells (U937), in words” value in the test with U937 cells (BCR-Abl−) [2] was “not on the Bcr-AbI− cells”.

For the molecule `COC(=O)c1cc2cc(NC(=O)c3c(C)cccc3Cl)cnc2[nH]1` [ND0074, Methyl 5-(2-chloro-6-methylbenzamido)-1H-pyrrolo[2,3-b]pyridine-2-carboxylate], the IC50 at Abl WT was 1 to 100 nM; in test [1] (setting [12]), above 10 µM; in test [1] (setting [10]), 0.01 to 1 µM; in test [1] (incubation time not stated (24 h and/or 72 h), read-out: IC50 for the K562 Bcr-AbI kinase (category)), above 10 µM; against Src kinase it was 1 to 100 nM. In addition, the inhibition at 10 µM is below 10% on Abl T315I and above 50% on Src kinase.

For the molecule `Cc1ccc(NC(=O)c2ccc(CN3CCN(C)CC3)cc2)cc1Nc1nccc(-c2cccnc2)n1` [Imatinib], the “Action of Imatinib on K562” value in test [4] was “Sensitive”.

`COC(=O)c1cc2cc(NC(=O)c3cc(NC(=O)c4ccc(CN5CCN(C)CC5)cc4)ccc3C)cnc2[nH]1` [ND0117, methyl 5-(5-(4-((4-methylpiperazin-1-yl)methyl)benzamido)-2-methylbenzamido)-1H-pyrrolo[2,3-b]pyridine-2-carboxylate]: the values for the inhibition at 10 µM at Abl WT, at Abl T315I and on Src kinase were above 50%, 10 to 50% and above 50%, respectively. The half-inhibitory concentration (IC50) was below 1 nM at Abl WT; 0.01 µM in test [1] (setting [12]); below 0.01 µM in test [1] (setting [10]); 0.01 µM in [1] (setting [11]); 1 to 100 nM against Src kinase.

As to `O=C(Nc1cnc2[nH]c(Cc3ccc[nH]3)cc2c1)c1ccccc1Br` [ND0037], the inhibition at 10 µM at Abl kinase (h) (setting [5]) was above 50%; at Abl kinase (h) (setting [6]) it was 97%; on Abl kinase (h) (setting [7]) it was 97%; at Src kinase (h) (setting [8]), above 50%; at Src kinase (h) (setting [9]), 72%.

In the case of `COC(=O)c1cc2cc(NC(=O)c3ccccc3C)cnc2[nH]1` [ND0076, Methyl 5-(2-methylbenzamido)-1H-pyrrolo[2,3-b]pyridine-2-carboxylate], the inhibition at 10 µM on Abl WT is above 50%; at Abl T315I, below 10%; at Src kinase, above 50%. In addition, the concentration for half-maximal inhibition (IC50) at Abl WT was 100 to 10000 nM; in test [1] (setting [12]), 1 to 10 µM; in test [1] (setting [10]) it was 0.01 to 1 µM; in [1] (setting [11]), 0.01 µM.

Regarding `COC(=O)c1cc2cc(NCc3ccc4[nH]ccc4c3)cnc2[nH]1` [ND0096], the inhibition at 10 µM on Abl WT, at Abl T315I and at Src kinase was above 50% each time. Moreover, the IC50 was 1 to 100 nM on Abl WT; 100 to 10000 nM on Abl T315I (ATP at 10 μM, read-out: IC50 on kinase Abl T315I (category)); 1 to 10 µM in [1] (setting [12]); 0.01 to 1 µM in [1] (setting [10]); 0.01 µM in [1] (setting [11]); 100 to 10000 nM against Src kinase.

Consider `COC(=O)c1cc2cc(NCc3c(C)cccc3Cl)cnc2[nH]1` [ND0089], for which the inhibition at 10 µM is above 50% on Abl WT, below 10% on Abl T315I and above 50% on Src kinase. The IC50 at Abl WT is 1 to 100 nM; in [1] (setting [12]), above 10 µM; in test [1] (setting [10]), 0.01 to 1 µM; against Src kinase it was 1 to 100 nM.
